Results taken from US20250129370A1, “METHOD FOR REDUCING HEPATIC TRIGLYCERIDES” (ADAERATA, LIMITED PARTNERSHIP, priority 2022, published 2025).

Assays:
[1] = tested on: mutated form of PCSK7 3′-UTR; assay: Luciferase reporter assay, miRNA target site-deleted PCSK7 3′-UTR, HEK293T cells; format: cell-based, human
Text: The interactions between the miRNAs and their probable targets on PCSK7 were explored by cloning the potential target regions in psiCHECK-2™ (Promega, USA), a luciferase reporter vector. In psiCHECK-2™, hRluc, the Renilla luciferase gene, is located upstream of the target regions of interest cloned into the psiCHECK-2™ vector downstream of the Renilla gene. The region corresponding to the 3′-UTR of PCSK7 (926-nt sequences in length) that constituted the predicted miRNA response elements was PCR-amplified and cloned downstream of the Renilla luciferase gene in the psiCHECK-2™ vector (Promega, USA). For the confirmation of whether miRNA response elements (miRNA target sites) on the 3′-UTR of PCSK7 were active and had direct interactions with the miRNAs, different mutants (plasmids) were constructed via splicing by over-hang-extension (SOEing) PCR. For miR-125a-5p and miR-143-3p, each of which has two miRNA response elements on PCSK7 3′-UTR, three different mutant constructs were built. Two constructs were made by deleting a putative miRNA target site, and the third one was made by omitting both putative miRNA target sites in the 3′-UTR sequence of PCSK7. In the miR-409-3p mutant construct, a putative miRNA target site was deleted from the 3′-UTR sequence.
The HEK293T cells were co-transfected through the application of the wild-type psiCHECK-2, the wild-type PCSK7 3′-UTR, the mutant PCSK7 3′-UTR, and the miR-overexpressing vectors so that the direct interactions of the nominated miRNAs with PCSK7 3′-UTR could be investigated. In brief, 150 ng of the wild-type or mutated 3′-UTR constructs and 300 ng of the miRNA-expressing vectors were co-transfected in HEK293T-cultured 48-well plates using FuGENE™ (Invitrogen, USA). Additionally, the psiCHECK-2 and pEGFP-C1 mock vectors were transfected and utilized as controls for luciferase assay and transfection, respectively. Transfection efficiency was monitored by fluorescent microscopy (Nikon TE2000S, Japan) 36 hours following the procedure.
The PsiCHECK-2 reporter construct plasmid contained the Renilla luciferase gene upstream of PCSK7 3′-UTR and an independent firefly luciferase gene as an internal control for normalization. Forty-eight hours after HEK293T co-transfection, the luciferase reporter assay was carried out employing the Dual-Luciferase Reporter Assay System (Promega, USA) with a luminometer (Titertek-Berthold, Germany) in accordance with the manufacturer's protocol. Each sample was performed in triplicate, and the experiment was repeated at least three biological times. In short, a lysis buffer was added to each well after the removal of the media of the cell. Then, LARII Reagent was added, and after 20 minutes, the firefly luciferase activity was measured as a control. Afterward, Renilla activity was determined using Stop & Glo Reagent. The relative luciferase activity was calculated using the following formula: ΔFold Activity of Luciferase (Renilla/Firefly)=Average Renilla/Firefly from Samples A/B.
A luciferase reporter assay further confirmed that miR-125a-5p, miR-143-3p, and miR-409-3p directly targeted the 3′-UTR of the PCSK7 transcript since the negative regulatory effect was lost upon the deletion of the miRNA target sites (miR-125a-5p, miR-143-3p, and miR-409-3p) on the 3′-UTR of the PCSK7 reporter plasmid (FIGS. 28A-B). In this regard, three different mutated miR plasmids were constructed for both miR-125a-5p and miR-143-3p. Single-target sites of each miRNA were omitted individually in two separate plasmids, and the two putative binding sites of the miRNAs were deleted in the other plasmid.

[2] = biological target: T1, secretory short N-terminal fragment of apoB (s-apoB; aa 1-965), P04114
T1 chain: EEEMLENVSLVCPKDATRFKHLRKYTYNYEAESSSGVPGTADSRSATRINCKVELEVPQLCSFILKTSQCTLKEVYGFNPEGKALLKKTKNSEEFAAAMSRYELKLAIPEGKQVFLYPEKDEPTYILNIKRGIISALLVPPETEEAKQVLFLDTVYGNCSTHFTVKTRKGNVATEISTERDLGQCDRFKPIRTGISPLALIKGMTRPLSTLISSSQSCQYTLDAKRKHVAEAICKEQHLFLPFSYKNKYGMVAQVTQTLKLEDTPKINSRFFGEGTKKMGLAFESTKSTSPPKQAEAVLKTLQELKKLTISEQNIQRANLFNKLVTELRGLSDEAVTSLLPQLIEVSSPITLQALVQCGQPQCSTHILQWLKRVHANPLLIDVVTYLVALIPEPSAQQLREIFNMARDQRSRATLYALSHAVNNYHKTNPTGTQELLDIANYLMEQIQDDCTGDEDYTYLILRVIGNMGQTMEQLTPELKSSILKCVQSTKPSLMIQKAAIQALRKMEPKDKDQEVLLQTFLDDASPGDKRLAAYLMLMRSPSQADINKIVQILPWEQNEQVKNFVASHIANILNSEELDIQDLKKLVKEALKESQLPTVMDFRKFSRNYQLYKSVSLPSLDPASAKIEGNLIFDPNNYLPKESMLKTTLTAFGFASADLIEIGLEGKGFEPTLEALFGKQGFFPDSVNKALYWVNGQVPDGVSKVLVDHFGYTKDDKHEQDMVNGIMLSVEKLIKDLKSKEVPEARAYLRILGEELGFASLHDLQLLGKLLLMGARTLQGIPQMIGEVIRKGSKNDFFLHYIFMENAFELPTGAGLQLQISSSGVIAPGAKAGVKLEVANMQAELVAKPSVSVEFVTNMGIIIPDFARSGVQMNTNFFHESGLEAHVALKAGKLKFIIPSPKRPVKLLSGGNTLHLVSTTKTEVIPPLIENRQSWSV

Q: For “miR-143-3p: miRNA with two target sites in the PCSK7 3′-UTR, overexpressed from precursor vector (UGAGAUGAAGCACUGUAGCUC; miRNA expressed from a precursor vector, further chemistry not given here)”, which relative luciferase activity ([1]; Mut-a, deletion of the first target site) is on record?
A: considerably diminished

Q: What about the relative luciferase activity ([1]; Mut-a,b, deletion of both miRNA target sites) of the same molecule?
A: no significant effect

Q: And the relative luciferase activity ([1]; Mut-b, deletion of the second target site)?
A: considerably diminished

Q: “miR-409-3p: miRNA with one target site in the PCSK7 3′-UTR, overexpressed from precursor vector (GAAUGUUGCUCGGUGAACCCCU; miRNA expressed from a precursor vector, further chemistry not given here)” was tested. Which luciferase activity ([1]; only putative target site of miR-409-3p absent) did it give?
A: did not lead to a reduction

B1: rat PC7 (protein)
chain: SIHFNDPKYPQQWHLNNRRSPGRDINVTGVWERNVTGRGVTVVVVDDGVEHTVQDIAPNYSPEGSYDLNSNDPDPMPHPDEENGNHHGTRCAGEIAAVPNNSFCAVGVAYGSRIAGIRVLDGPLTDSMEAVAFNKHYQINDIYSCSWGPDDDGKTVDGPHQLGKAALQHGVMAGRQGFGSIFVVASGNGGQHNDNCNYDGYANSIYTVTIGAVDEEGRMPFYAEECASMLAVTFSGGDKMLRSIVTTDWDLQKGTGCTEGHTGTSAAAPLAAGMIALMLQVRPCLTWRDVQHIIVFTATQYEDHRADWLTNEAGFSHSHQHGFGLLNAWRLVNAAKIWTSVPYLASYVSPMLKENKAVPRSPHSLEVLWNVSRTDLEMSGLKTLEHVAVTVSITHPRRGSLELKLFCPSGMMSLIGAPRSMDSDPNGFNDWTFSTVRCWGERARGVYRLVIRDVGDEPLQVGILQQWQLTLYGSTWSPVDIKDRQSLLESAMSGKYLHDDFTLPCPPGLKIPEEDGYSITPNTLKTLVLVGCFSVFWTIYYMLEVCLSQRSKASTHGCRRGCCPWPPQSQNSKEVGTALESMPLCSSKDLDGVDSEHGDCTTASSLLAPELLGEADWSLSQNSKSDLDCPPHQPPDLKDGQIC
Q: How did the “secretion of s-apoB (apo21), Western blot” value [2] turn out when B1 was run?
A: rat PC7 (rPC7) also enhanced by ~2-fold the secretion of s-apoB (apo21)

B2: rat PC7 soluble-KDEL variant (retained in the ER) (protein)
chain: SIHFNDPKYPQQWHLNNRRSPGRDINVTGVWERNVTGRGVTVVVVDDGVEHTVQDIAPNYSPEGSYDLNSNDPDPMPHPDEENGNHHGTRCAGEIAAVPNNSFCAVGVAYGSRIAGIRVLDGPLTDSMEAVAFNKHYQINDIYSCSWGPDDDGKTVDGPHQLGKAALQHGVMAGRQGFGSIFVVASGNGGQHNDNCNYDGYANSIYTVTIGAVDEEGRMPFYAEECASMLAVTFSGGDKMLRSIVTTDWDLQKGTGCTEGHTGTSAAAPLAAGMIALMLQVRPCLTWRDVQHIIVFTATQYEDHRADWLTNEAGFSHSHQHGFGLLNAWRLVNAAKIWTSVPYLASYVSPMLKENKAVPRSPHSLEVLWNVSRTDLEMSGLKTLEHVAVTVSITHPRRGSLELKLFCPSGMMSLIGAPRSMDSDPNGFNDWTFSTVRCWGERARGVYRLVIRDVGDEPLQVGILQQWQLTLYGSTWSPVDIKDRQSLLESAMSGKYLHDDFTLPCPPGLKIPEEDGYSITPNTLKTKDEL
Q: Which “secretion of s-apoB (apo21) compared to rPC7, Western blot” value [2] does the source give for B2 here?
A: rPC7-KDEL significantly reduced (~30%) s-apoB (apo21) secretion compared to rPC7

B3: human PC7 (overexpressed in IHH cells) (protein)
chain: SVHFNDPKYPQQWHLNNRRSPGRDINVTGVWERNVTGRGVTVVVVDDGVEHTIQDIAPNYSPEGSYDLNSNDPDPMPHPDVENGNHHGTRCAGEIAAVPNNSFCAVGVAYGSRIAGIRVLDGPLTDSMEAVAFNKHYQINDIYSCSWGPDDDGKTVDGPHQLGKAALQHGVIAGRQGFGSIFVVASGNGGQHNDNCNYDGYANSIYTVTIGAVDEEGRMPFYAEECASMLAVTFSGGDKMLRSIVTTDWDLQKGTGCTEGHTGTSAAAPLAAGMIALMLQVRPCLTWRDVQHIIVFTATRYEDRRAEWVTNEAGFSHSHQHGFGLLNAWRLVNAAKIWTSVPYLASYVSPVLKENKAIPQSPRSLEVLWNVSRMDLEMSGLKTLEHVAVTVSITHPRRGSLELKLFCPSGMMSLIGAPRSMDSDPNGFNDWTFSTVRCWGERARGTYRLVIRDVGDESFQVGILRQWQLTLYGSVWSAVDIRDRQRLLESAMSGKYLHDDFALPCPPGLKIPEEDGYTITPNTLKTLVLVGCFTVFWTVYYMLEVYLSQRNVASNQVCRSGPCHWPHRSRKAKEEGTELESVPLCSSKDPDEVETESRGPPTTSDLLAPDLLEQGDWSLSQNKSALDCPHQHLDVPHGKEEQIC
Q: For B3, which “secretion of s-apoB (apoB21) into the medium, Western blot” value [2] is on record?
A: overexpression of PC7 enhanced the secretion of s-apoB (apoB21)
